Where two headings read alike, the source gives them in different places.
Assays:
CYP3A4 = CYP3A4 (Homo sapiens (Human), UniProt P08684); assay: CYP3A4 inhibitory activity: Luciferin-IPA (P450-Glo) assay with human liver microsome
Procedure: Cytochrome P450 activity may be determined by a P450-Glo™ assay (Promega) with human liver microsomes wherein the compounds of the present disclosure are dosed at different concentrations in buffer and incubated. Dose-response curve and IC50 data may be obtained and fit to a nonlinear regression model using GraphPad Prism software (v6.0).
The standard final Compound concentrations were 37, 111, 333, 1000, and 3000 nM. 12.5 μL of the Compound dilutions were transferred to a white 96-well plate. 1450 μL (enough for a whole plate) of 4× assay buffer (400 mM potassium phosphate buffer (10 mL 1M potassium phosphate buffer: 8.02 mL 1M K2HPO4+1.98 mL 1M KH2PO4 (1.4 g K2HPO4+0.27 g KH2PO4 in 10 mL H2O), 32 μM Luciferin-IPA (Promega V9002)) 580 μl of 1 M K3PO4 buffer, 870 μL H2O, 14 μL of 3 mM Luciferin-IPA, and 18 μL of human liver microsome (Sigma M0317-1VL) was made. 12.5 μL of 4× assay buffer was added to each well. For the well of blank control, 12.5 μL of 4× assay buffer without liver microsome was added. The plate was incubated at room temperature for 15 minutes. 2.75 mL NADPH buffer was made as follows: 2.42 mL H2O, 275 μL solution A and 55 μL solution B (NADPH regeneration system, Promega V9510). 25 μL of the buffer was added to each well. The plates were incubated at 37° C. for 11 minutes. 50 μL of luciferin detection reagent (Promega V9002) was added and the plates were incubated at room temperature for 5 minutes. The plate was read with a luminometer.
The dose-response curve and IC50 were obtained by fitting data to nonlinear regression model using GraphPad Prism software (v6.0).

P-glycoprotein = P-glycoprotein (Homo sapiens (Human), UniProt P08183); assay: P-glycoprotein inhibitory activity: MTT cell growth assay in P-gp overexpressing MES-SA/DX5 cells with docetaxel or paclitaxel; type: cell-based; conditions: 3 days, with 100 nM docetaxel or 200 nM paclitaxel, MTT readout
P-glycoprotein, sequence (P08183 whole entry): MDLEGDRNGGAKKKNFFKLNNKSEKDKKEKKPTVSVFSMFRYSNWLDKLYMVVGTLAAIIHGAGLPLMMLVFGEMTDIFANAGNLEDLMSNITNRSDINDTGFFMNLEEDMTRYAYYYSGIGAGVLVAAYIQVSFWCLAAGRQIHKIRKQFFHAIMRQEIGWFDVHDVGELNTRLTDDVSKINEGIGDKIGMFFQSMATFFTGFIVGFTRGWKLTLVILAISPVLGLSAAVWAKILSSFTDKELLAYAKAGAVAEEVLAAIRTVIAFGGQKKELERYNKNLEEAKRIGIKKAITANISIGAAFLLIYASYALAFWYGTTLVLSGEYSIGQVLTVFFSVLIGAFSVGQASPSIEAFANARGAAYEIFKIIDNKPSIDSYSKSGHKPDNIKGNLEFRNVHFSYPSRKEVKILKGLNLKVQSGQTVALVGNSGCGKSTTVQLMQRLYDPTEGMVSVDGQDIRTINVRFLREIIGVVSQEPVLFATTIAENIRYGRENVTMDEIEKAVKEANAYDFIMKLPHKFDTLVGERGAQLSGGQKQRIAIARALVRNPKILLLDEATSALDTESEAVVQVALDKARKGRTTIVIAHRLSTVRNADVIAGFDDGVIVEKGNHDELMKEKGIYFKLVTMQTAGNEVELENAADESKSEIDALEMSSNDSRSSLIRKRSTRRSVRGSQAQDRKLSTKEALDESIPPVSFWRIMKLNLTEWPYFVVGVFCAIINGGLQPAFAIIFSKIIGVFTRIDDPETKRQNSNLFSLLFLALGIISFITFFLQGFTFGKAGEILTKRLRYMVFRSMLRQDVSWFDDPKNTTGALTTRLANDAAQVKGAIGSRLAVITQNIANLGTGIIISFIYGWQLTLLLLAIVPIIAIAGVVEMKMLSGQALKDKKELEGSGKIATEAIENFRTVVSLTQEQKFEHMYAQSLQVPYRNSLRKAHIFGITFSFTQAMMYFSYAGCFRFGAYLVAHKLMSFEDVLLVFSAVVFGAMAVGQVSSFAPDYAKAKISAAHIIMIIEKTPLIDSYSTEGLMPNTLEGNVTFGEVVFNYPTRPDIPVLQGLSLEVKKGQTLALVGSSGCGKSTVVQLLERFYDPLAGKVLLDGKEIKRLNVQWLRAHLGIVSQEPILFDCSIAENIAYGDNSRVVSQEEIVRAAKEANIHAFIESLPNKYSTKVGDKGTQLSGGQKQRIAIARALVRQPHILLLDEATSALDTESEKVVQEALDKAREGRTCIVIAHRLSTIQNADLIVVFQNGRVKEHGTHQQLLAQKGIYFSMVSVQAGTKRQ
Procedure: P-glycoprotein inhibitory activity may be determined by an assay wherein P-glycoprotein overexpressed cell lines are treated with increasing concentrations of a compound of the present disclosure and therapeutic agent for three days, followed by an MTT assay.
Cell growth percentage may be calculated with the following equation: Cell growth percentage=(T−T0)/(C−T0)×100%, wherein T is OD of the test well exposure to Compound; C is OD of the control well without Compound treatment; and T0 is OD at time zero.
A P-glycoprotein overexpressing cell line derived from the human uterine sarcoma cell line MES-SA (i.e., MES-SA/DX5 cells (ATCC)) was seeded by stepwise exposures to increasing concentrations of doxorubicin, in a 96-well plate at 6,500 cells/100 μL media (McCoy's 5A+10% FBS) in each well. The cells were incubated overnight at 37° C. 5% CO2. Compounds were diluted in a separate 96-well plate to yield 11× of final concentration (final Compound concentrations were 0, 5, 20, 80, 320, and 1280 nM and the final docetaxel concentration was 100 nM or the final paclitaxel concentration was 200 nM). DMSO was used as a negative control and known P-glycoprotein inhibitor, encequidar methane sulfonic acid monohydrate (HM30181A), was used as a positive control. 10 μL of the 11× dilutions was added to the appropriate well, P-glycoprotein inhibition wells comprised Compound+docetaxel (or Compound+paclitaxel). The compound toxicity wells comprised 1280 nM Compound+10 μL of culture media. Treated the cells were incubated for 3 days at 37° C. 5% CO2.
To value (reflecting the starting number of cells upon Compound treatment) of 3 wells of cells was determined by performing the following steps 1-4 as described below.
1. 10 μL MTT (5 mg/mL in PBS) was added to each well and incubated for 1.5 hours at 37° C. 5% CO2.
2. Culture media was removed and 100 μL of DMSO was added to each well.
3. The plate was gently shook until all purple MTT formazan crystals were dissolved. OD540 was then measured using microplate reader.
4. Cell growth percentage was calculated with the following equation: Cell growth percentage=(T−T0)/(C−T0)×100%, wherein T is OD of the test well exposure to Compound; C is OD of the control well without Compound treatment; and T0 is OD at time zero.

CYP3A4, sequence (P08684 whole entry): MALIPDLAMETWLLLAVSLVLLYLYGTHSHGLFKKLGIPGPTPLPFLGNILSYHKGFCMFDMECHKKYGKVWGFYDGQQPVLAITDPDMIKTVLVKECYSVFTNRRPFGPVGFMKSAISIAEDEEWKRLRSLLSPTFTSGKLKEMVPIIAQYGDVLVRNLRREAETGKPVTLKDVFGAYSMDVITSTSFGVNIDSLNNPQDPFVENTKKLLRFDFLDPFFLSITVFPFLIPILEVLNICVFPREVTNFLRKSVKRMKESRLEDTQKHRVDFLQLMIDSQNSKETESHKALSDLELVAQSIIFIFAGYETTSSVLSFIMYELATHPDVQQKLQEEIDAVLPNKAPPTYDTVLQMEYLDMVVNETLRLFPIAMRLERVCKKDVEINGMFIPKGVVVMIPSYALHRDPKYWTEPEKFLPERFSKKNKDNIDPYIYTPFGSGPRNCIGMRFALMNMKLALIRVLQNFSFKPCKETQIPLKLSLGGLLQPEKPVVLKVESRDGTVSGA

Row | Compound | IC50 (CYP3A4; human, microsomes, 11 min) [µM] | EC50 (P-glycoprotein) [µM] | IC50 (CYP3A4) [µM]
1 | COc1cc(NC(=O)c2cc(=O)c3ccc(C)cc3o2)c(-c2nnn(-c3ccc(CCN(Cc4cccc(-n5ccnc5)c4)Cc4ccc5c(cnn5C)c4)cc3)n2)cc1OC [Compound 5, N-(2-(2-(4-(2-((3-(1H-Imidazol-1-yl)benzyl)((1-methyl-1H-indazol-5-yl)methyl)amino)ethyl)phenyl)-2H-tetrazol-5-yl)-4,5-dimethoxyphenyl)-7-methyl-4-oxo-4H-chromene-2-carboxamide] | > 1 | > 1 | 
2 | COc1cc(NC(=O)c2cc(=O)c3ccccc3o2)c(-c2nnn(-c3ccc(CCN4CCn5cncc5C4)cc3)n2)cc1OC [Compound 1, A-(2-(2-(4-(2-(5,6-Dihydroimidazo[1,5-a]pyrazin-7(8H)-yl)ethyl)phenyl)-2H-tetrazol-5-yl)-4,5-dimethoxyphenyl)-4-oxo-4H-chromene-2-carboxamide] | > 1 | > 1 | 
3 | COc1cc(NC(=O)c2cc(=O)c3ccccc3o2)c(-c2nnn(-c3ccc(CCN4CCc5ccc(-n6ccnc6)cc5C4)cc3)n2)cc1OC [Compound 10, N-(2-(2-(4-(2-(7-(1H-Imidazol-1-yl)-3,4-dihydroisoquinolin-2(1H)-yl)ethyl)phenyl)-2H-tetrazol-5-yl)-4,5-dimethoxyphenyl)-4-oxo-4H-chromene-2-carboxamide] |  | > 1 | 0.25 to 0.5
4 | COc1cc(NC(=O)c2cc(=O)c3ccccc3o2)c(-c2nnn(-c3ccc(CCN4CCc5ccncc5C4)cc3)n2)cc1OC [Compound 6, N-(2-(2-(4-(2-(3,4-Dihydro-2,7-naphthyridin-2(1H)-yl)ethyl)phenyl)-2H-tetrazol-5-yl)-4,5-dimethoxyphenyl)-4-oxo-4H-chromene-2-carboxamide] | > 1 | 0.1 to 0.25 | 
5 | COc1cc(NC(=O)c2cc(=O)c3ccccc3o2)c(-c2nnn(-c3ccc(CCN4CCc5cc(-n6ccnc6)ccc5C4)cc3)n2)cc1OC [Compound 8, N-(2-(2-(4-(2-(6-(1H-Imidazol-1-yl)-3,4-dihydroisoquinolin-2(1H)-yl)ethyl)phenyl)-2H-tetrazol-5-yl)-4,5-dimethoxyphenyl)-4-oxo-4H-chromene-2-carboxamide] |  | > 1 | 0.1 to 0.25

Next, values leading:

Row | IC50 (CYP3A4; human, microsomes, 11 min) [µM] | EC50 (P-glycoprotein) [µM] | IC50 (CYP3A4) [µM] | Compound
6 | > 1 | < 0.1 |  | COc1cc(NC(=O)c2cc(=O)c3ccccc3o2)c(-c2nnn(-c3ccc(CCN4CCc5cnccc5C4)cc3)n2)cc1OCc1ccccc1 [Compound 12, N-(4-(Benzyloxy)-2-(2-(4-(2-(3,4-dihydro-2,6-naphthyridin-2(1H)-yl)ethyl)phenyl)-2H-tetrazol-5-yl)-5-methoxyphenyl)-4-oxo-4H-chromene-2-carboxamide]
7 |  | 0.1 to 0.25 | 0.5 to 1 | COc1cc2c(cc1OC)CN(CCc1ccc(-n3nnc(-c4cc(OCCc5cccnc5)ccc4NC(=O)c4cc(=O)c5ccccc5o4)n3)cc1)CC2 [Compound 28, N-(2-(2-(4-(2-(6,7-Dimethoxy-3,4-dihydroisoquinolin-2(1H)-yl)ethyl)phenyl)-2H-tetrazol-5-yl)-4-(2-(pyridin-3-yl)ethoxy)phenyl)-4-oxo-4H-chromene-2-carboxamide]
8 | > 1 | 0.5 to 1 |  | COc1cc2c(cc1OC)CN(CCc1ccc(-n3nnc(-c4cc(Oc5ccncc5)ccc4NC(=O)c4cc(=O)c5ccccc5o4)n3)cc1)CC2 [Compound 25, N-(2-(2-(4-(2-(6,7-Dimethoxy-3,4-dihydroisoquinolin-2(1H)-yl)ethyl)phenyl)-2H-tetrazol-5-yl)-4-(pyridin-4-yloxy)phenyl)-4-oxo-4H-chromene-2-carboxamide]
9 | > 1 | < 0.1 |  | COc1cc2c(cc1OC)CN(CCc1ccc(-n3nnc(-c4cc(Oc5cccnc5)ccc4NC(=O)c4cc(=O)c5ccccc5o4)n3)cc1)CC2 [Compound 24, N-(2-(2-(4-(2-(6,7-Dimethoxy-3,4-dihydroisoquinolin-2(1H)-yl)ethyl)phenyl)-2H-tetrazol-5-yl)-4-(pyridin-3-yloxy)phenyl)-4-oxo-4H-chromene-2-carboxamide]
10 | > 1 | < 0.1 |  | COc1cc2c(cc1OC)CN(CCc1ccc(-n3nnc(-c4cc(OCc5ccncc5)ccc4NC(=O)c4cc(=O)c5ccccc5o4)n3)cc1)CC2 [Compound 26, N-(2-(2-(4-(2-(6,7-Dimethoxy-3,4-dihydroisoquinolin-2(1H)-yl)ethyl)phenyl)-2H-tetrazol-5-yl)-4-(pyridin-4-ylmethoxy)phenyl)-4-oxo-4H-chromene-2-carboxamide]
11 |  | < 0.1 | > 1 | COC(=O)c1ccc(-c2nnn(-c3ccc(CCN(C)Cc4ccc5c(cnn5C)c4)cc3)n2)c(NC(=O)c2cc(=O)c3ccccc3o2)c1 [Compound 15, Methyl 4-(2-(4-(2-(methyl((1-methyl-1H-indazol-5-yl)methyl)amino)ethyl)phenyl)-2H-tetrazol-5-yl)-3-(4-oxo-4H-chromene-2-carboxamido)benzoate]
12 | > 1 | < 0.1 |  | COc1cc2c(cc1OC)CN(CCc1ccc(-n3nnc(-c4cc(OC)c(OC)cc4NC(=O)c4cc(=O)c5ccccc5o4)n3)cc1)CC2 [Encequidar methanesulfonate monohydrate, reference compound]
